# The source made the active and inactive calls. No cut-off for these calls is given here.
# Assays:
# Saccharomyces cerevisiae [1] = test: Phototoxicity against Saccharomyces cerevisiae at 2.5 ug/disk after UV irradiation for 30 mins; type: functional, organism-based
# DNA [2] = test: Photochemical activity against denatured calf thymus DNA at 10 ug by hyperchromicity test; type: nucleic-acid assay; conditions: Bos taurus
# [3] = tested on: Trichophyton mentagrophytes; test: Phototoxicity against Trichophyton mentagrophytes at 5 ug/disk in presence of cool-white fluorescent light; type: functional, organism-based
# Proteus mirabilis [4] = test: Phototoxicity against Proteus mirabilis UBC 5 at 5 ug/disk in presence of long wave UV light; type: functional, organism-based
# Escherichia coli [5] = test: Phototoxicity against Escherichia coli at 5 ug/disk in dark; type: functional, organism-based
# DNA [6] = test: Photochemical activity against denatured calf thymus DNA at 10 ug in dark after 30 mins by hyperchromicity test; type: nucleic-acid assay; conditions: Bos taurus
# [7] = Effect on human skin fibroblast cells assessed as viable cell count at 10 ug/ml in petroleum ether after 1.78 Joules/cm UV irradiation for 20 mins by trypan blue exclusion method; type: ADME, cell-based; conditions: read-out: Activity
# Escherichia coli [8] = test: Phototoxicity against Escherichia coli at 5 ug/disk in presence of cool-white fluorescent light; type: functional, organism-based
# DNA [9] = test: Photochemical activity against denatured calf thymus DNA at 10 ug in dark by hyperchromicity test; type: nucleic-acid assay; conditions: Bos taurus; note: unit not given here
# Saccharomyces cerevisiae [10] = test: Phototoxicity against Saccharomyces cerevisiae at 5 ug/disk in presence of cool-white fluorescent light; type: functional, organism-based
# DNA [11] = test: Photochemical activity against denatured calf thymus DNA at in dark after 120 mins by hyperchromicity test; type: nucleic-acid assay; conditions: Bos taurus; note: unit not given here
# Candida albicans [12] = test: Phototoxicity against Candida albicans at 2.5 ug/disk after UV irradiation for 15 mins; type: functional; conditions: light or radiation study, 0.25 h, read-out: IZ
# Sporobolomyces [13] = test: Phototoxicity against Sporobolomyces sp. Y138 at 5 ug/disk in presence of long wave UV light; type: functional, organism-based
# Saccharomyces cerevisiae [14] = test: Phototoxicity against Saccharomyces cerevisiae at 2.5 ug/disk after UV irradiation for 180 mins; type: functional, organism-based
# DNA [15] = test: Photochemical activity against denatured calf thymus DNA at 10 ug after UV irradiation with 10.67 Joules/cm'2 for 120 mins by hyperchromicity test; type: nucleic-acid assay; conditions: Bos taurus; note: unit not given here
# Pseudomonas fluorescens [16] = test: Phototoxicity against Pseudomonas fluorescens at 5 ug/disk in presence of long wave UV light; type: functional, organism-based
# [17] = Effect on human skin fibroblast cells assessed as viable cell count at 10 ug/ml in petroleum ether after 3.53 Joules/cm UV irradiation for 40 mins by trypan blue exclusion method; type: ADME, cell-based; conditions: read-out: Activity
# Saccharomyces cerevisiae [18] = test: Effect on Saccharomyces cerevisiae assessed as viable cell count at 10 ug/ml in petroleum ether after 5.33 Joules/cm'2 UV irradiation for 60 mins; type: functional
# Microsporum canis = test: Phototoxicity against Microsporum canis at 5 ug/disk in presence of long wave UV light; type: functional, organism-based
# Paraphyton cookei [19] = test: Phototoxicity against Microsporum cookei at 5 ug/disk in presence of long wave UV light; type: functional, organism-based
# Paraphyton cookei [20] = test: Phototoxicity against Microsporum cookei at 5 ug/disk in presence of cool-white fluorescent light; type: functional, organism-based
# Kocuria rosea [21] = test: Phototoxicity against Micrococcus roseus UBC 289 at 5 ug/disk in presence of cool-white fluorescent light; type: functional, organism-based
# [22] = Effect on human skin fibroblast cells assessed as viable cell count at 10 ug/ml in petroleum ether after 10.67 Joules/cm UV irradiation for 120 mins by trypan blue exclusion method; type: ADME, cell-based; conditions: read-out: Activity
# [23] = tested on: Staphylococcus epidermidis; test: Phototoxicity against Staphylococcus albus at 5 ug/disk in presence of cool-white fluorescent light; type: functional, organism-based
# Bacillus subtilis [24] = test: Phototoxicity against Bacillus subtilis at 5 ug/disk in presence of long wave UV light; type: functional, organism-based
# Saccharomyces cerevisiae [25] = test: Effect on Saccharomyces cerevisiae assessed as viable cell count at 10 ug/ml in petroleum ether after 2.67 Joules/cm'2 UV irradiation for 30 mins; type: functional
# [26] = tested on: Staphylococcus epidermidis; test: Phototoxicity against Staphylococcus albus at 5 ug/disk in dark; type: functional, organism-based
# Fusarium sp. [27] = test: Phototoxicity against Fusarium sp. at 5 ug/disk in dark; type: functional, organism-based
# Proteus mirabilis [28] = test: Phototoxicity against Proteus mirabilis UBC 5 at 5 ug/disk in presence of cool-white fluorescent light; type: functional, organism-based
# Bacillus subtilis [29] = test: Phototoxicity against Bacillus subtilis at 5 ug/disk in dark; type: functional, organism-based
# Saccharomyces cerevisiae [30] = test: Phototoxicity against Saccharomyces cerevisiae at 5 ug/disk in presence of long wave UV light; type: functional, organism-based
# [31] = tested on: Trichophyton mentagrophytes; test: Phototoxicity against Trichophyton mentagrophytes at 5 ug/disk in dark; type: functional, organism-based
# Nannizzia gypsea = test: Phototoxicity against Microsporum gypseum at 5 ug/disk in presence of cool-white fluorescent light; type: functional, organism-based
# [32] = Effect on human skin fibroblast cells assessed as viable cell count at 10 ug/ml in petroleum ether after 5.33 Joules/cm UV irradiation for 60 mins by trypan blue exclusion method; type: ADME, cell-based; conditions: read-out: Activity
# Kocuria rosea [33] = test: Phototoxicity against Micrococcus roseus UBC 289 at 5 ug/disk in presence of long wave UV light; type: functional, organism-based
# Paraphyton cookei [34] = test: Phototoxicity against Microsporum cookei at 5 ug/disk in dark; type: functional, organism-based
# DNA [35] = test: Photochemical activity against denatured calf thymus DNA at 10 ug in dark after 60 mins by hyperchromicity test; type: nucleic-acid assay; conditions: Bos taurus; note: unit not given here
# Pseudomonas fluorescens [36] = test: Phototoxicity against Pseudomonas fluorescens at 5 ug/disk in presence of cool-white fluorescent light; type: functional, organism-based
# [37] = tested on: Staphylococcus epidermidis; test: Phototoxicity against Staphylococcus albus at 5 ug/disk in presence of long wave UV light; type: functional, organism-based
# DNA [38] = test: Photochemical activity against denatured calf thymus DNA at in dark after 180 mins by hyperchromicity test; type: nucleic-acid assay; conditions: Bos taurus
# Candida albicans [39] = test: Phototoxicity against Candida albicans at 5 ug/disk in presence of cool-white fluorescent light; type: functional, organism-based
# Saccharomyces cerevisiae [40] = test: Effect on Saccharomyces cerevisiae assessed as viable cell count at 10 ug/ml in petroleum ether after 1.33 Joules/cm'2 UV irradiation for 15 mins; type: functional
# Saccharomyces cerevisiae [41] = test: Effect on Saccharomyces cerevisiae assessed as viable cell count at 10 ug/ml in petroleum ether in dark after 30 mins; type: functional
# [42] = Effect on human skin fibroblast cells assessed as viable cell count at 10 ug/ml in petroleum ether in dark after 60 mins by trypan blue exclusion method; type: ADME, cell-based; conditions: read-out: Activity
# Fusarium sp. [43] = test: Phototoxicity against Fusarium sp. at 5 ug/disk in presence of cool-white fluorescent light; type: functional, organism-based
# Enterococcus faecalis = test: Phototoxicity against Streptococcus faecalis at 5 ug/disk in presence of cool-white fluorescent light; type: functional, organism-based
# Saccharomyces cerevisiae [44] = test: Phototoxicity against Saccharomyces cerevisiae at 2.5 ug/disk after UV irradiation for 15 mins; type: functional; conditions: light or radiation study, 0.25 h, read-out: IZ
# Candida albicans [45] = test: Phototoxicity against Candida albicans at 2.5 ug/disk after UV irradiation for 180 mins; type: functional, organism-based
# Sporobolomyces [46] = test: Phototoxicity against Sporobolomyces sp. Y138 at 5 ug/disk in dark; type: functional, organism-based
# Torula [47] = test: Phototoxicity against Torula sp. at 5 ug/disk in presence of cool-white fluorescent light; type: functional, organism-based
# Sporobolomyces [48] = test: Phototoxicity against Sporobolomyces sp. Y138 at 5 ug/disk in presence of cool-white fluorescent light; type: functional, organism-based
# Saccharomyces cerevisiae [49] = test: Effect on Saccharomyces cerevisiae assessed as viable cell count at 10 ug/ml in petroleum ether in dark after 180 mins; type: functional
# Torula [50] = test: Phototoxicity against Torula sp. at 5 ug/disk in dark; type: functional, organism-based
# DNA [51] = test: Photochemical activity against denatured calf thymus DNA 10 ug after UV irradiation with 2.67 Joules/cm'2 for 30 mins at by hyperchromicity test; type: nucleic-acid assay; conditions: Bos taurus
structure (smiles),measurement,setting,value
CC#CC#CC#Cc1ccccc1 [PHENYLHEPTATRIYNE],Activity,Saccharomyces cerevisiae [1],inactive
same,Activity,DNA [2],0.18
same,Activity,[3],Active
same,Activity,Proteus mirabilis [4],Active
same,Activity,Escherichia coli [5],inactive
same,Activity,DNA [6],0.17
same,"viability at 20 min, 10 ug/ml",[7],95%
same,Activity,Escherichia coli [8],inactive
same,Activity,DNA [9],0.17
same,Activity,Saccharomyces cerevisiae [10],Active
same,Activity,DNA [11],0.19
same,zone of inhibition at 2.5 µg/disc,Candida albicans [12],11 mm
same,Activity,Sporobolomyces [13],Active
same,Activity,Saccharomyces cerevisiae [14],inactive
same,Activity,DNA [15],0.01
same,Activity,Pseudomonas fluorescens [16],inactive
same,"viability at 40 min, 10 ug/ml",[17],50%
same,Activity,Saccharomyces cerevisiae [18],0
same,Activity,Microsporum canis,Active
same,Activity,Paraphyton cookei [19],Active
same,Activity,Paraphyton cookei [20],Active
same,Activity,Kocuria rosea [21],Active
same,"viability at 2 h, 10 ug/ml",[22],0%
same,Activity,[23],Active
same,Activity,Bacillus subtilis [24],Active
same,Activity,Saccharomyces cerevisiae [25],0.02
same,Activity,[26],inactive
same,Activity,Fusarium sp. [27],inactive
same,Activity,Proteus mirabilis [28],inactive
same,Activity,Bacillus subtilis [29],inactive
same,Activity,Saccharomyces cerevisiae [30],Active
same,Activity,[31],inactive
same,Activity,Nannizzia gypsea,Active
same,"viability at 1 h, 10 ug/ml",[32],0%
same,Activity,Kocuria rosea [33],Active
same,Activity,Paraphyton cookei [34],inactive
same,Activity,DNA [35],0.18
same,Activity,Pseudomonas fluorescens [36],inactive
same,Activity,[37],Active
same,Activity,DNA [38],0.18
same,Activity,Candida albicans [39],Active
same,Activity,Saccharomyces cerevisiae [40],2.57
same,Activity,Saccharomyces cerevisiae [41],35.8
same,"viability at 1 h, 10 ug/ml",[42],100%
same,Activity,Fusarium sp. [43],Active
same,Activity,Enterococcus faecalis,Active
same,zone of inhibition at 2.5 µg/disc,Saccharomyces cerevisiae [44],10 mm
same,Activity,Candida albicans [45],inactive
same,Activity,Sporobolomyces [46],inactive
same,Activity,Torula [47],inactive
same,Activity,Sporobolomyces [48],Active
same,Activity,Saccharomyces cerevisiae [49],53.5
same,Activity,Torula [50],inactive
same,Activity,DNA [51],0.03
